Experimental data as given in US11844823B2, “Beta-hairpin peptidomimetic with elastase inhibitory activity and aerosol dosage forms thereof” (POLYPHOR AG, priority 2016, dated 2023).
Non-standard residues stand in square brackets, D forms with d. Residues, ends and D or L forms follow the SMILES beside them. Gly(octyl) = CCCCCCCC[C@H](N)C(=O)O

Key:
[1] = target: T1, human neutrophil elastase (Homo sapiens, UniProt P08246); test: Phase-1b study, active neutrophil elastase in sputum by FRET elastase assay; type: in vivo; conditions: CF patients; response appeared independent of dose; returned to baseline at 24 h
T1 construct: from tissue; host or cells: spontaneous sputum of patients with cystic fibrosis (PBS-soluble fraction)
T1 sequence (P08246 30-247 limits assumed): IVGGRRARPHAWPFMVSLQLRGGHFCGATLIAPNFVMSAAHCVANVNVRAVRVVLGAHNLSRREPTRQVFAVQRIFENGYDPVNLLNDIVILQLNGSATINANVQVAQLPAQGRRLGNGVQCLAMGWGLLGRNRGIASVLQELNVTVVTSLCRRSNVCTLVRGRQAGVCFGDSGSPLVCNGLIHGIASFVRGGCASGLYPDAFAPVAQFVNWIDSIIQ
Method: The pharmacodynamic effect of ascending single doses of active compound was investigated by evaluation of neutrophil elastase (NE) activity in sputum using FRET (fluorescence resonance energy transfer) assay after PBS aliquotation and freezing.
On the day of screening, if possible, for baseline assessment of NE activity, on Day −1 as soon as possible after the subject's arrival at the study site for baseline assessment of NE activity, on Day 1 in the period of time between 1 h and 3 h after start of inhalation, and in the morning of Day 2, at approx. 24 h after start of inhalation.
For evaluation of NE activity in sputum, at first, the weight of the sputum sample was determined and 8 mL cold phosphate-buffered saline (PBS) per gram purified sputum was added. […]
The NE activity in sputum was evaluated by using a FRET elastase assay adapted from an assay described in Nature Protocols, 2008, 3, 991 (B. Korkmaz, S. Attucci, M. A. Juliano et al.) and validated by MLM Medical Labs GmbH, Mönchengladbach, Germany.
The assay is based on the reaction of human neutrophil elastase with the substrate 2Abz-Ala-Pro-Glu-Glu-Ile-Met-Arg-Arg-Gln-Tyr(3NO2)—OH (GeneCust Europe S.A., Ellange, Luxembourg, #P160301-SY452824). […] The product of the reaction is detected through fluorescence measurement and the initial reaction velocity is determined. […]

[2] = test system: healthy subjects; test: First-in-man study in healthy subjects, safety and tolerability of orally inhaled single doses; type: in vivo, human
Excerpt: In this randomised, double-blind, placebo-controlled, parallel-group (per dose level) dose-escalation study of inhaled single doses in 48 healthy subjects in six dose groups of eight subjects each, conducted by Inamed GmbH, Gauting, Germany, the controlled oral inhalation of the formulation described in Example 1 and dilutions thereof as well as the placebo (0.5% [w/w] aqueous sodium chloride solution adjusted to pH 5.5 with 1 M HCl pharmaceutical grade) occurred via the Pari eFlow® XL 30 nebulizer device (Pari Pharma GmbH, Starnberg, Germany). The dose levels and corresponding concentrations of cyclo(-OctG-Glu-Thr-Ala-Ser-Ile-Pro-Pro-Gln-Lys-Tyr-^DPro-Pro-) (active compound) are summarized in Table 10.
The volume of placebo nebulizer solution corresponded to that of the active compound at a particular dose level. The duration of inhalation depended on the total volume of nebulizer solution and ranged between several minutes and roughly one hour. Adverse events were tabulated and summarized according to the current version of Medical Dictionary for Regulatory Activities.

[3] = test system: rats; test: GLP-compliant 28-day inhalation toxicity study in rats; type: in vivo, rat
Method: In a GLP-compliant 28-day inhalation toxicity study in rats, conducted by Charles River Laboratories Preclinical Services, Tranent, Edinburgh, UK, the formulation described in Example 2 and dilutions thereof as well as the vehicle were administered using the Pari eFlow® XL 30 nebulizer device (Pari Pharma, Starnberg, Germany) for 100 min per day for 28 days, followed by a 2-week recovery period. […] Ten animals were used for the main toxicity study, and 5 additional animals for the recovery phase. Parameters assessed included clinical signs, body weights, food consumption, ophthalmic examination, clinical pathology, gross necropsy findings, organ weights and histopathologic examinations. […] This was associated with reduction in food consumption in treated animals. There was a good recovery in body weight gain during the recovery period between day 28 and 42.
These changes resolved during the recovery period and were considered a non-adverse, adaptive response to mild irritation. […] This slight increase in macrophage accumulation was considered a nonspecific response to the inhalation of high concentrations of material exceeding the clearance capacity of the lung.

## CCCCCCCC[C@@H]1NC(=O)[C@@H]2CCCN2C(=O)[C@H]2CCCN2C(=O)[C@H](Cc2ccc(O)cc2)NC(=O)[C@H](CCCCN)NC(=O)[C@H](CCC(N)=O)NC(=O)[C@@H]2CCCN2C(=O)[C@@H]2CCCN2C(=O)[C@H]([C@@H](C)CC)NC(=O)[C@H](CO)NC(=O)[C@H](C)NC(=O)[C@H]([C@@H](C)O)NC(=O)[C@H](CCC(=O)O)NC1=O [cyclo(-OctG-Glu-Thr-Ala-Ser-Ile-Pro-Pro-Gln-Lys-Tyr-^DPro-Pro-)] (cyclo([Gly(octyl)]ETASIPPQKY[dP]P))
[1]
  mean concentration of active NE in sputum after single-dose inhalation: strongly decreased
[2]; healthy subjects, single inhaled doses 20-960 mg
  death, serious and other significant adverse events: No death, no serious adverse events (AE) and no other significant AE
[2]; human, in vivo
  subjects judging overall tolerability 'very good' or 'good': 97.9%
  total number of AEs: 27
  treatment-emergent adverse events (TEAEs): 24
[3]; rat, 11, 53 and 119 mg/kg/day
  clinical signs or ophthalmic findings: no clinical signs or ophthalmic findings
[3]; rat, in vivo
  histopathology of the larynx: focal minimal squamous metaplasia without cellular atypia of dysplasia
  organ weights or gross findings: no treatment-related changes
[3]; rat, haematology, coagulation, clinical chemistry, urinalysis
  clinical pathology findings considered toxicologically relevant: no findings
